Data reported in patent US20220151276A1, “COMPOSITION CONTAINING PLANT-DERIVED EXTRACT AND/OR PLANT-DERIVED PROCESSED PRODUCT” (OTSUKA PHARMACEUTICAL CO., LTD., priority 2019, published 2022).

System: healthy adult males
Experiment: Incremental loading exercise test with bicycle
Type: in vivo, human
Description: For 25 healthy adult males, 3 dosages of kaempferol-containing cookie-shaped foods (containing 2.5 mg, 10 mg, or 25 mg of kaempferol, respectively) and a placebo cookie-shaped food (kaempferol-free) were used as test foods, and a once-a-day ingestion for consecutive 8 days were repeated four times by the crossover method. 3 hours after a test food ingestion on day 1 (Single ingestion) and on day 8 (Consecutive ingestion), an incremental loading exercise with bicycle was performed while sampling the exhaled gas to determine the oxygen consumption. The Heart rate and the rating of perceived exertion were monitored during exercise. Dynamic/kinetic visual acuity was measured before and after the exercise. Details of each endpoint are given below. Oxygen consumption (VO2) (mL/min/kg) was calculated from the difference between the amount of oxygen in the inhaled gas (atmosphere) and the amount of oxygen in the exhaled gas. When a weight of the pedal approaches a subject's limit during incremental loading exercise with bicycle, a heart rate (HR) is maximized. The increase in heart rate from the resting heart rate to the maximum heart rate was defined as 100% of exercise intensity, and the oxygen consumption (VO2) was plotted at each exercise intensity. That is, for example, an exercise intensity of 50% HR is calculated by the following equation: 100×(x−Resting heart rate)/(Maximum heart rate−Resting heart rate)=50% HR, and the oxygen consumption (VO2) in which the heart rate is the “x” means “oxygen consumption (VO2) at an exercise intensity of 50% HR”. Oxygen consumption efficiency was calculated by the following equation. Oxygen consumption efficiency (VO2/VE)=oxygen consumption/ventilation The oxygen uptake efficiency slope (OUES) was calculated using the ventilation and VO2 every 1 min from the beginning of the incremental loading exercise. Specifically, a graph of linearity was obtained by plotting “logarithmic value of ventilation (VE)” on the horizontal axis and “VO2” on the vertical axis, and the slope of the linear function graph was defined as OUES. For details, see Non-Patent Document 5. Exercise intensity (% HR) and rating of perceived exertion (RPE) at the oxygen consumption (VO2) of 14 mL/min/kg and 24.5 mL/min/kg in incremental loading exercise (the levels of stair climbing and jogging, respectively) were evaluated. The calculation methods for oxygen consumption (VO2) and exercise intensity (% HR) are the same as those described above. The perceived exertion was rated by the subject according to the following table at 1-minute intervals from the beginning of the incremental loading exercise, and the scales rated by each subject were averaged to give the rating of perceived exertion (RPE).

[1] = single and consecutive ingestion, at VO2 of 14 mL/min/kg (stair climbing) and 24.5 mL/min/kg (jogging), compared with no intake of kaempferol
[2] = single and consecutive ingestion, incremental loading exercise, compared with no intake of kaempferol

Structure (SMILES): O=c1c(O)c(-c2ccc(O)cc2)oc2cc(O)cc(O)c12 [kaempferol]
- oxygen consumption efficiency (VO2/VE) (single and consecutive ingestion, after initiation of incremental loading exercise, compared with no intake of kaempferol): increased oxygen consumption efficiency
- exercise intensity (% HR) at given oxygen consumption [1]: decreased exercise intensity
- rating of perceived exertion (RPE) [1]: decreased rating of perceived exertion
- maximum exercise load (Pedal Weight (watt)) [2]: increased maximum exercise load
- maximum oxygen consumption (VO2peak) [2]: increased maximum oxygen consumption
- oxygen uptake efficiency slope (OUES) [2]: increased oxygen uptake efficiency slope
- oxygen consumption (VO2) at each exercise intensity (single ingestion (day 1) and consecutive ingestion (day 8), 3 hours after ingestion, exercise intensities 50-100% HR, compared with no intake of kaempferol (placebo)): increased oxygen consumption at all exercise intensities
